One block for each compound: values may come before it.
Columns and labels:
[1] = format: in vitro ADME, human; conditions: preliminary analysis
[2] = Stability of cyanidin chloride, PCA and PGA in saliva; format: in vitro ADME, human
[3] = Stability of cyanidin chloride in acidified water; format: physicochemical
[4] = format: in vitro ADME, human; conditions: individual glucosides in RdGrp extract, chlorhexidine rinse

SMILES: OC[C@H]1O[C@@H](Oc2cc3c(O)cc(O)cc3[o+]c2-c2cc(O)c(O)c(O)c2)[C@H](O)[C@@H](O)[C@@H]1O [Dp, Delphinidin-3-O-glucoside]
- Decrease of degradation in saliva after antibacterial treatment [4]: 30%

SMILES: COc1cc(-c2[o+]c3cc(O)cc(O)c3cc2O[C@@H]2O[C@H](CO)[C@@H](O)[C@H](O)[C@H]2O)cc(OC)c1O [Mv, Malvidin-3-O-glucoside]
- Decrease of degradation in saliva after antibacterial treatment [4]: 50%

SMILES: O=C(O)c1ccc(O)c(O)c1 [PCA, protocatechuic acid]
- recovery at 60 min, 25 nmol/mL ([2]; human): 90%

SMILES: O=Cc1c(O)cc(O)cc1O [PGA, phloroglucinol aldehyde]
- Recovery after incubation in intact saliva ([2]; 25 nmol/mL, 37 °C, 60 min): 43%

Continued, values first:

- Chalcone glucosides of Cy as share of the original amount incubated in saliva ex vivo [1]: ≤ 30%
SMILES: OC[C@H]1O[C@@H](Oc2cc3c(O)cc(O)cc3[o+]c2-c2ccc(O)c(O)c2)[C@H](O)[C@@H](O)[C@@H]1O [Cy-3-glu, Cyanidin-3-O-glucoside]

- Cyanidin aglycone degraded upon addition to intact saliva ([2]; human, 0 min, 25 nmol/L): > 90%
- PCA as share of the degraded CyCl in saliva ([2]; human, 0 min, 25 nmol/mL): 15.3%
- PCA as share of the degraded CyCl in saliva ([2]; human, 60 min, 25 nmol/mL): 9.6%
- CyCl recovered immediately after addition to acidified water ([3]; 0 min): Greater than 86%
- CyCl lost after incubation in acidified water ([3]; 60 min): greater than 88%
SMILES: Oc1cc(O)c2cc(O)c(-c3ccc(O)c(O)c3)[o+]c2c1 [CyCl, cyanidin chloride]

- Decrease of degradation in saliva after antibacterial treatment [4]: 50%
SMILES: COc1cc(-c2[o+]c3cc(O)cc(O)c3cc2O[C@@H]2O[C@H](CO)[C@@H](O)[C@H](O)[C@H]2O)ccc1O [Pn, Peonidin-3-O-glucoside]

- Decrease of degradation in saliva after antibacterial treatment [4]: 10%
SMILES: COc1cc(-c2[o+]c3cc(O)cc(O)c3cc2O[C@@H]2O[C@H](CO)[C@@H](O)[C@H](O)[C@H]2O)cc(O)c1O [Pt-3-glu, Petunidin-3-O-glucoside]

Source: publication PMC3839579 (Food chemistry, 2012)
